The data set deals with Human stomach cancer cells 4-1st. Briefly: Combination of Compound 1 and trastuzumab emtansine (in vivo), subcutaneous tumor in nude mice. The conditions noted are these: for T/C (%): Day 15; for BWC (%) Day 15 Mean: mouse, in vivo, po. The text has this:
Human stomach cancer cells 4-1st were obtained as fragment tumor from the Central Institute for Experimental Animals. Tumor was excised approximately one month after subcutaneous transplantation and passage in a nude mouse (BALB/cAJcl-nu/nu, CLEA Japan, Inc.), and prepared into a fragment of approximately 2 mm square. A transplantation needle was packed with one fragment and subcutaneously inserted from around the right most distal rib of a nude mouse. After entrance to the right back, the inner cylinder was pushed to eject and transplant the tumor. Electronic calipers were used in tumor size measurement, and the major axis and the minor axis of the tumor of each mouse were measured by sandwiching the tumor between the measuring surfaces of the electronic calipers (Days 0, 4, 8, 11 and 15). A tumor volume (TV) was calculated from the major axis and the minor axis. A relative tumor volume (RTV) and a rate of change in relative tumor volume (T/C) were calculated from the calculated tumor volume. TV, RTV, and T/C were calculated according to the following expressions. Tumor volume TV (mm^3)=(Major axis, mm)×(Minor axis, mm)×(Minor axis, mm)/2 Relative tumor volume RTV=(TV on the day of measurement)/(TV on the day of grouping) Rate of change in relative tumor volume T/C (%)=(Average RTV of an administration group)/(Average RTV of a control group)×100
An electronic balance for animals was used in body weight measurement. A rate of change in body weight on day n (BWCn) was calculated from the body weight on day n (BWn) according to the following expression. Rate of change in body weight BWCn (%)=(BWn−BW0)/BW0×100
Nude mice whose TV reached 100 to 300 mm^3 were selected, and six animals were assigned to each group by the equal number method (MiSTAT (ver. 2.0)) such that average TV was equalized among groups.
The presence or absence of an effect of combined use and toxicity were determined from tumor sizes and body weights on the day of grouping (Day 0) and the day of evaluation (Day 15). During the administration period, the body weights were measured every day for the calculation of the amount of a dosing solution.

Setting [1] is: Compound 1 7.5 mg/kg/day p.o. Days 1-14.
Where [2] appears, read: Compound 1 15 mg/kg/day p.o. Days 1-14.

From patent publication US11696917B2, “Agent enhancing antitumor effect using pyrazolo[3,4-d]pyrimidine compound” (TAIHO PHARMACEUTICAL CO., LTD., priority 2017, dated 2023) come the findings set out here.

As to `C=CC(=O)N1CCC[C@@H](n2nc(C(=O)Nc3ccc(CC(=O)N(C)C)c(C)c3C)c3c(N)ncnc32)C1` [Compound 1, (R)-1-(1-acryloylpiperidin-3-yl)-4-amino-N-(4-(2-(dimethylamino)-2-oxoethyl)-2,3-dimethylphenyl)-1H-pyrazolo[3,4-d]pyrimidine-3-carboxamide], the “RTV Day 15 Mean ± SD” value reads like this: under setting [1], 5.92 ± 0.38; under setting [2], 3.58 ± 0.41. For the same compound, the “T/C (%)” value was determined as 51.6% under setting [1] and 31.2% under setting [2]. Moreover, the “BWC (%) Day 15 Mean” value runs as follows: (7.5 mg/kg/day) 7.41%; (15 mg/kg/day) 3.63%.
